One assay deals with T1, CDK2 (Homo sapiens, UniProt P24941).
T1 construct: endogenous in cells; host or cells: MDA-MB-231
In words: CDK protein degradation activity (Western blotting), CDK2. As to conditions: MDA-MB-231 cells, 16 hours, Western blot. It counts as cell-based. The method in brief: (§1)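 CDK2 and CDK9 protein levels measured by Western blot with densitometry, using tubulin as loading reference. Cells were MDA-MB-231, exposed for 16 h to 100 nM, 1 μM or 10 μM compound or to DMSO.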

A further assay deals with T2, CDK9 (Homo sapiens, UniProt P50750).
T2 construct: endogenous in cells; host or cells: MDA-MB-231
T2 sequence (P50750 whole entry): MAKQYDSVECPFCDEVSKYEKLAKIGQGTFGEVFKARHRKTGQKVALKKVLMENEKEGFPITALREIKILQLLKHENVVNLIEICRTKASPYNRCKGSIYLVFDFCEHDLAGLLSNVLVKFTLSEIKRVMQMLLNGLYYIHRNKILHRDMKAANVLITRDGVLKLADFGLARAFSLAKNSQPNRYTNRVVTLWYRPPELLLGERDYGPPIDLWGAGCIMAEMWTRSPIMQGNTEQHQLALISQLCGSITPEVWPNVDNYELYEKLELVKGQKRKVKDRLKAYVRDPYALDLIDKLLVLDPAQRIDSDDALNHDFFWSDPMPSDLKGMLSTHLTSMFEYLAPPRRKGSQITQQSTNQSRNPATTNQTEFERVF
In words: CDK protein degradation activity (Western blotting), CDK9. Format: cell-based. As to conditions: MDA-MB-231 cells, 16 hours, Western blot. The method in brief:
as §1
In general terms: Immunoblotting shows a protein as a band on a membrane.

For `O=C1CC[C@@H](c2ccc(OCC(=O)N3CCC(CCCN4CCN(c5ccc(Nc6ncnc7c6ncn7[C@H]6C[C@@H](NC(=O)Cc7ccccc7)C6)cc5)CC4)CC3)cc2)C(=O)N1` [Compound 258, N-((1s,3s)-3-(6-((4-(4-(3-(1-(2-(4-(2,6-dioxopiperidin-3-yl)phenoxy)acetyl)piperidin-4-yl)propyl)piperazin-1-yl)phenyl)amino)-9H-purin-9-yl)cyclobutyl)-2-phenylacetamide], at CDK2, the “Enzyme degradation CDK2 (% remaining) @ 0.1 μM” value is reported as 20/20/20%, the “Enzyme degradation CDK2 (% remaining) @ 1 μM” value is listed as 20/20/20% and the “Enzyme degradation CDK2 (% remaining) @ 10 μM” value is on record as 20/20/20%. For the same compound, at CDK9, the “Enzyme degradation CDK9 (% remaining) @ 0.1 μM” value came to 20%, the “Enzyme degradation CDK9 (% remaining) @ 1 μM” value is reported as 0% and the “Enzyme degradation CDK9 (% remaining) @ 10 μM” value is 0%.
Take `O=C1CC[C@@H](c2cccc(OCC(=O)N3CCC(CCCN4CCN(c5ccc(Nc6ncnc7c6ncn7C6CC(NC(=O)Cc7ccccc7)C6)cc5)CC4)CC3)c2)C(=O)N1` (stereo partly drawn) [Compound 259, N-((1s,3s)-3-(6-((4-(4-(3-(1-(2-(3-(2,6-dioxopiperidin-3-yl)phenoxy)acetyl)piperidin-4-yl)propyl)piperazin-1-yl)phenyl)amino)-9H-purin-9-yl)cyclobutyl)-2-phenylacetamide]: at CDK2, the “Enzyme degradation CDK2 (% remaining) @ 0.1 μM” value is 0/0/0%, the “Enzyme degradation CDK2 (% remaining) @ 1 μM” value was 0/0/0% and the “Enzyme degradation CDK2 (% remaining) @ 10 μM” value was 0/0/0%. Also, on CDK9, the “Enzyme degradation CDK9 (% remaining) @ 0.1 μM” value is 0/0/0%, the “Enzyme degradation CDK9 (% remaining) @ 1 μM” value is on record as 0/0/0% and the “Enzyme degradation CDK9 (% remaining) @ 10 μM” value was 0/0/0%.
Consider `O=C1CCC(N2C(=O)c3cccc(N4CCC(OCCN5CCN(c6ccc(Nc7ncnc8c7ncn8[C@H]7C[C@@H](NC(=O)Cc8ccccc8)C7)cc6)CC5)CC4)c3C2=O)C(=O)N1` (stereo partly drawn) [Compound 260, N-((1s,3s)-3-(6-((4-(4-(2-((1-(2-(2,6-dioxopiperidin-3-yl)-1,3-dioxoisoindolin-4-yl)piperidin-4-yl)oxy)ethyl)piperazin-1-yl)phenyl)amino)-9H-purin-9-yl)cyclobutyl)-2-phenylacetamide], for which, at CDK2, the “Enzyme degradation CDK2 (% remaining) @ 0.1 μM” value is reported as 20/20/20%, the “Enzyme degradation CDK2 (% remaining) @ 1 μM” value is reported as 20/20/20% and the “Enzyme degradation CDK2 (% remaining) @ 10 μM” value is reported as 20/20/20%. Also, on CDK9, the “Enzyme degradation CDK9 (% remaining) @ 0.1 μM” value was 60/60/60%, the “Enzyme degradation CDK9 (% remaining) @ 1 μM” value is 60/60/60% and the “Enzyme degradation CDK9 (% remaining) @ 10 μM” value was 60/60/60%.
In the case of `O=C1CC[C@H](N2C(=O)c3cccc(N4CCC(CCCN5CCN(c6ccc(Nc7ncnc8c7ncn8[C@H]7C[C@@H](NC(=O)Cc8ccccc8)C7)cc6)CC5)CC4)c3C2=O)C(=O)N1` [Compound 261, N-((1s,3s)-3-(6-((4-(4-(3-(1-(2-(2,6-dioxopiperidin-3-yl)-1,3-dioxoisoindolin-4-yl)piperidin-4-yl)propyl)piperazin-1-yl)phenyl)amino)-9H-purin-9-yl)cyclobutyl)-2-phenylacetamide], at CDK2, the “Enzyme degradation CDK2 (% remaining) @ 0.1 μM” value came to 70%, the “Enzyme degradation CDK2 (% remaining) @ 1 μM” value is reported as 90% and the “Enzyme degradation CDK2 (% remaining) @ 10 μM” value was 100%. Besides, at CDK9, the “Enzyme degradation CDK9 (% remaining) @ 0.1 μM” value is listed as 60%, the “Enzyme degradation CDK9 (% remaining) @ 1 μM” value amounted to 30% and the “Enzyme degradation CDK9 (% remaining) @ 10 μM” value is given as 20%.
Regarding `O=C1CC[C@H](N2C(=O)c3ccc(N4CCC(CCCN5CCN(c6ccc(Nc7ncnc8c7ncn8C7CC(NC(=O)Cc8ccccc8)C7)cc6)CC5)CC4)cc3C2=O)C(=O)N1` (stereo partly drawn) [Compound 262, N-((1s,3s)-3-(6-((4-(4-(3-(1-(2-(2,6-dioxopiperidin-3-yl)-1,3-dioxoisoindolin-5-yl)piperidin-4-yl)propyl)piperazin-1-yl)phenyl)amino)-9H-purin-9-yl)cyclobutyl)-2-phenylacetamide], at CDK2, the “Enzyme degradation CDK2 (% remaining) @ 0.1 μM” value amounted to 70%, the “Enzyme degradation CDK2 (% remaining) @ 1 μM” value came out at 90% and the “Enzyme degradation CDK2 (% remaining) @ 10 μM” value was found to be 100%. Moreover, on CDK9, the “Enzyme degradation CDK9 (% remaining) @ 0.1 μM” value was determined as 40%, the “Enzyme degradation CDK9 (% remaining) @ 1 μM” value is reported as 30% and the “Enzyme degradation CDK9 (% remaining) @ 10 μM” value amounted to 10%.

Source of the values: patent publication US20260125382A1, “COMPOUNDS FOR INHIBITING OR DEGRADING CDK2 AND/OR CDK9 AND MEDICINAL USE THEREOF” (KOREA RESEARCH INSTITUTE OF CHEMICAL TECHNOLOGY, priority 2022, published 2026).
